In PMC2720641 (Biochemistry, 2009):

What was measured:
mCOX-2 = biological target: T1, mCOX-2 (Mus musculus, UniProt Q05769); assay: IC50 for inhibition of mCOX-2 oxygenation of AA after preincubation; type: biochemical, murine; conditions: read-out: IC50 for inhibition of AA oxygenation; 2 min preincubation; 50 μM AA
T1 sequence (Q05769 18-604): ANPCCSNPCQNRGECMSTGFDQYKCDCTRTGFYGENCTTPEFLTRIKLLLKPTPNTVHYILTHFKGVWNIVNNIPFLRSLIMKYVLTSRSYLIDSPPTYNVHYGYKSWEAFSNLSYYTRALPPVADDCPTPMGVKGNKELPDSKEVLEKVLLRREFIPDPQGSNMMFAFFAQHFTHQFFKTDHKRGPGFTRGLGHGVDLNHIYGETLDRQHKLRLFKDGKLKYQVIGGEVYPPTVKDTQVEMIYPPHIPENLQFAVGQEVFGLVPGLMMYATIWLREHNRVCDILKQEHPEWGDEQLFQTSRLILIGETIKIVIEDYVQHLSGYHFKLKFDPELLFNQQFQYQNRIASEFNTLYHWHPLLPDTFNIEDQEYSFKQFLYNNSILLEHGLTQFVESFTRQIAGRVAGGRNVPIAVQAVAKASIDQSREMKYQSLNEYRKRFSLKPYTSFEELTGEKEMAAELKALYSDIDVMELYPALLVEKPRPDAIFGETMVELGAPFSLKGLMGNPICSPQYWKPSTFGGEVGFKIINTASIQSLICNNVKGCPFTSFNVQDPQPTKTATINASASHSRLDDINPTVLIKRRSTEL

murine COX-2 (mCOX-2) [1] = biological target: T2, murine COX-2 (mCOX-2) (Mus musculus, UniProt Q05769); assay: Instantaneous inhibition of mCOX-2 oxygenation of 2-AG; type: biochemical; conditions: substrate 2-AG
T2 sequence (Q05769 18-604): T1 sequence (Q05769 18-604)

murine COX-2 (mCOX-2) [2] = biological target: T2, murine COX-2 (mCOX-2); assay: Instantaneous inhibition of mCOX-2 oxygenation of AA; type: biochemical; conditions: substrate AA

| SMILES | IC50 (mCOX-2) [µM] | Mode of inhibition of 2-AG oxygenation (murine COX-2 (mCOX-2) [1]) | Oxygenation of 2-AG at 5 μM inhibitor (murine COX-2 (mCOX-2) [1]; mefenamate 5 μM) | Mode of inhibition of AA oxygenation (murine COX-2 (mCOX-2) [2]) |
| --- | --- | --- | --- | --- |
| COc1ccc2c(c1)c(CC(=O)O)cn2C(=O)c1ccc(Cl)cc1 [2′-des-methylindomethacin] | ~500 | – | – | – |
| Cc1cccc(Nc2ccccc2C(=O)O)c1C [mefenamic acid] | – | noncompetitive | completely inhibited | competitive |
